Our source for the IC50 values is PMC3424541 (2012).

The structures appear in SMILES notation.

This test addresses T1, HsRAD51 (Homo sapiens, UniProt Q06609).
T1 sequence (Q06609 2-339): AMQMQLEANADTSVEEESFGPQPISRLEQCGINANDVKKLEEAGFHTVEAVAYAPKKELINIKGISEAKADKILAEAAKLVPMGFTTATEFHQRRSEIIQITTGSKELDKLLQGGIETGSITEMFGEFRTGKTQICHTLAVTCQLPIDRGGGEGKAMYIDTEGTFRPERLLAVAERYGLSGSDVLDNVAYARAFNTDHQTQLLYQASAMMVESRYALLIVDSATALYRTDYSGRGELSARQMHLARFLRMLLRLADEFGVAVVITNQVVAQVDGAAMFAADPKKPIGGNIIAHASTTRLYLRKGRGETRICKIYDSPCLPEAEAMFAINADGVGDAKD
The experiment in a line: LC-MS/MS of the covalent adduct at C319. Format: binding.

Broadly, the IC50 is the concentration that inhibits the measured activity by half. Read a high IC50 as weaker potency in that assay. `O=C1C(Cl)=C(N2CCOCC2)C(=O)N1c1ccc(Cl)c(Cl)c1` [RI-1, 3-chloro-1-(3,4-dichlorophenyl)-4-(4-morpholinyl)-1H-pyrrole-2,5-dione]: the IC50 lay in the range of 5 to 30 µM.
